In US7825128B2, “Sulfoximine-substituted pyrimidines, processes for production thereof and use thereof as drugs” (Bayer Schering Pharma AG, priority 2005, dated 2010):
pIC50: −log10 of the molar value. Blank lines part the entries; values can stand above or below the molecule they belong to.

Experiments:
Format in all cases: biochemical
Tie-2 = biological target: T1, Tie-2 (Homo sapiens, UniProt Q02763); test: Tie-2 kinase assay without prior activation of the kinase; conditions: 10 μM ATP
T1 construct: consisting of GST and the intracellular domain of Tie-2; made in house; host or cells: insect cells (Hi-5)
T1 sequence (Q02763 770-1124 limits assumed, species assumed): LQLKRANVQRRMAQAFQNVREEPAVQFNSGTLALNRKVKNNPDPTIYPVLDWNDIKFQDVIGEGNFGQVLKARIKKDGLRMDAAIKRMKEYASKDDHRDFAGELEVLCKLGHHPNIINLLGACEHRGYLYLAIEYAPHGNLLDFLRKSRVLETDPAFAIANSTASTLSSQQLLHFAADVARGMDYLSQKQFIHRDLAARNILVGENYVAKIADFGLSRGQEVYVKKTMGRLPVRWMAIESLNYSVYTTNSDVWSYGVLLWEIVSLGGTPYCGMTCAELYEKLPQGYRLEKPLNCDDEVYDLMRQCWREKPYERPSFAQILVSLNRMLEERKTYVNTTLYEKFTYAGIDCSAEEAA
Text: For the kinase assay, a recombinant fusion protein expressed in insect cells (Hi-5) and purified by glutathione-sepharose affinity chromatography, consisting of GST and the intracellular domain of Tie-2, was used. Alternatively, commercially available GST-Tie2 fusion protein (Upstate Biotechnology, Dundee, Scotland) can be used. As the substrate for the kinase reaction, the biotinylated peptide biotin-Ahx-EPKDDAYPLYSDFG (C-terminus in amide form), which can be acquired e.g. from the company Biosyntan GmbH (Berlin-Buch, Germany) was used. […]
The resulting mixture was incubated for 1 hr at 22° C. in order to allow the binding of the biotinylated phosphorylated peptide to the streptavidin-XLent and the PT66-Eu-chelate. After this, the quantity of the phosphorylated substrate peptide was determined by measurement of the resonance energy transfer from the PT66-Eu chelate to the streptavidin-XLent. For this purpose, the fluorescence emission at 620 nm and 665 nm after excitation at 350 nm was measured in a HTRF meter, e.g. Rubystar (BMG Labtechnologies, Offenburg, Germany) or Viewlux (Perkin-Elmer). The ratio of the emissions at 665 nm and at […] was used as a measure of the quantity of the phosphorylated substrate peptide. […]

CDK2/CycE = biological target: T2, CDK2/CycE (Homo sapiens, UniProt P24941); test: CDK2/CycE kinase assay; conditions: 0.5 μM ATP, Histone IIIS substrate
T2 construct: GST; purchased ProQinase GmbH, Freiburg; host or cells: Baculovirus-infected Sf9 insect cells
Method: Recombinant CDK2- and CycE-GST fusion proteins, purified from Baculovirus-infected insect cells (Sf9), were purchased from ProQinase GmbH, Freiburg. Histone IIIS, which was used as the kinase substrate, was purchased from the Sigma Co.
CDK2/CycE (50 ng/data point) was incubated for 10 mins at 22° C. in the presence of different concentrations of test substances (0 μM, and within the range 0.01-100 μM) in assay buffer [50 mM tris/HCl pH8.0, 10 mM MgCl2, 0.1 mM Na orthovanadate, 1.0 mM dithiothreitol, 0.5 μM ATP, 10 μg/data point Histone IIIS, 0.2 μCi/data point ^33P-gamma ATP, 0.05% NP40, 1.25% dimethylsulfoxide]. The reaction was stopped by addition of EDTA solution (250 mM, pH8.0, 15 μl/data point).
15 μl of each reaction mixture was applied onto P30 filter strips (Wallac Co.), and non-incorporated ^33P-ATP was removed by washing the filter strips three times, for 10 mins each time, in 0.5% phosphoric acid. After drying of the filter strips for 1 hour at 70° C., the filter strips were covered with scintillator strips (MeltiLex™ A, Wallac Co.) and baked for 1 hour at 90° C. The quantity of incorporated ^33P (substrate phosphorylation) was determined by scintillation measurement in a gamma radiation meter (Wallac).

ITK = biological target: T3, ITK (Homo sapiens, UniProt Q08881); test: ITK kinase assay a) (polyGT, FRET); conditions: polyGT substrate, 1.3 μM ATP
T3 sequence (Q08881 1-620): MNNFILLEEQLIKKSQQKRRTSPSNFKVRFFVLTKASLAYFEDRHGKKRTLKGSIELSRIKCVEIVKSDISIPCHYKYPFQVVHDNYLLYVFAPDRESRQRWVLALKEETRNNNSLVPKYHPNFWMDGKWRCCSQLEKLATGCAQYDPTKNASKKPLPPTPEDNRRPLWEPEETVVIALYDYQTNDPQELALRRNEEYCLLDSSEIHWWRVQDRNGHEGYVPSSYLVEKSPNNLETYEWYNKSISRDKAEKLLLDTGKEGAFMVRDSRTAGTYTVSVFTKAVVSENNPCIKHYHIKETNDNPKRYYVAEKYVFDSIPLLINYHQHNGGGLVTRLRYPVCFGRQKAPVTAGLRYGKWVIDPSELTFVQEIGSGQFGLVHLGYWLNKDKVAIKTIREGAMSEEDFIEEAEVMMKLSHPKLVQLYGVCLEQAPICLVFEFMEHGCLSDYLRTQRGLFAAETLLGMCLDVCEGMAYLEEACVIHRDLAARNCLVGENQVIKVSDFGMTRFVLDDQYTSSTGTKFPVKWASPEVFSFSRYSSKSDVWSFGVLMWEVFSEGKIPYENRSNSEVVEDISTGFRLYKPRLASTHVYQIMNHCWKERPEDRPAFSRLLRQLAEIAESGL
Method: For the determination of the kinase activity of ITK, the phosphorylation of polyGT is measured. In the kinase reaction, 106 pM ITK, 1.3 μM ATP and 20 nM polyGT are used. The reaction runs for 20 mins at RT and is then stopped by addition of EDTA (final concentration 60 mM).
The reaction buffer contains 50 mM TrisCL pH7.5, 10 mM MnCl2, 10% glycerine, 1 mM DTT, 0.1% Tween-20 and 0.1 mM Na3V04 and a protease inhibitor cocktail (“complete”, Roche diagnostics)
The measurement of the enzyme activity is effected by the determination of the phosphorylated substrates. The poly GT substrate used is biotinylated. The measurement is performed in a FRET-based assay, wherein an anti-phospho-tyrosine antibody recognises and binds the phosphorylated substrate poly GT.
The bound antibody is now in the spatial vicinity of a streptavidin-coupled fluorescence dye, which was bound to polyGt by biotin-streptavidin interaction. On excitation of the europium chelate on the phosphotyrosine antibody with […] UV light, light of the wavelength 620 nm is emitted, which in turn excites the dye XLent, which then emits light of longer wavelength (665 nm).
The detection reagents are added in 50 mM Hepes pH 7.0 with 0.1% BSA. […]
After addition of the detection reagents, the samples stand overnight at 4 degrees Celsius, in order to form the FRET-creating complexes. For example, an IC50=4 μM was measured for Example 1.7.

human Itk = biological target: T4, human Itk (Homo sapiens, UniProt Q08881); test: ITK kinase assay b) (Itk HTRF assay); conditions: biotinylated myelin basic protein, 10 μM ATP
T4 construct: kinase domain of the human Itk (amino acids 352-617); 6His (N); purchased Upstate (Dundee, UK); host or cells: baculovirus infected SF21 cells
T4 sequence (Q08881 352-617): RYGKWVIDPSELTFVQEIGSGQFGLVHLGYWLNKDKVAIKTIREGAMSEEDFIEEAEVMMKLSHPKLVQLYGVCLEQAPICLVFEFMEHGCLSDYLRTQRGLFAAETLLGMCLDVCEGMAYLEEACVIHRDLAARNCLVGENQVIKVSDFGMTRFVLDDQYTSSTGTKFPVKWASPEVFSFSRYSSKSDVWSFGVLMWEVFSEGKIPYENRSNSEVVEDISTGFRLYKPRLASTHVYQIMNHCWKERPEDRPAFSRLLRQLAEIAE
Text: Itk inhibitory activity of compounds of the present invention was quantified employing the Itk HTRF assay as described in the following paragraphs.
N-terminal 6His-tagged recombinant kinase domain of the human Itk (amino acids 352-617) expressed in baculovirus infected SF21 cells and purified using Ni^2+/NTA agarose was purchased form Upstate (Dundee, UK) and used as kinase. As substrate for the kinase reaction the biotinylated myelin basic protein was used which can be purchased form GE Healthcare (Freiburg i. Br., Germany). […]
The resulting mixture was incubated 1 h at 22° C. to allow the binding of the biotinylated phosphorylated substrate to the streptavidine-XLent and the PT66-Eu-Chelate. Subsequently the amount of phosphorylated substrate was evaluated by measurement of the resonance energy transfer from the PT66-Eu-Chelate to the streptavidine-XLent. Therefore, the fluorescence emissions at 620 nm and 665 nm after excitation at 350 nm was measured in a HTRF reader, e.g. a Rubystar (BMG Labtechnologies, Offenburg, Germany) or a Viewlux (Perkin-Elmer). […] The data were normalised (enzyme reaction without inhibitor=0% inhibition, all other assay components but no enzyme=100% inhibition) and IC50 values were calculated by a 4 parameter fit using an inhouse software.

Aurora-C = biological target: T5, Aurora-C (Homo sapiens, UniProt Q9UQB9); test: Aurora-C kinase assay; conditions: 3 μM ATP
T5 construct: made in house; host or cells: transiently transfected HEK293 cells
T5 sequence (Q9UQB9 1-309): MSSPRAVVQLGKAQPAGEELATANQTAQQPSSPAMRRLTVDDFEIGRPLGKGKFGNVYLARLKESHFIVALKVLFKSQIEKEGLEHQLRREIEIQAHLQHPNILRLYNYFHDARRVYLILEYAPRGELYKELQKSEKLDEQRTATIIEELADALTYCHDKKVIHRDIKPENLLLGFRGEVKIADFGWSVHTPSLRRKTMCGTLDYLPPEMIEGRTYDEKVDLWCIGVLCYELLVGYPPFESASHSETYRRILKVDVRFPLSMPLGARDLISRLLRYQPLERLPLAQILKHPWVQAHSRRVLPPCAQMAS
Method: Recombinant Aurora-C Protein was expressed in transiently transfected HEK293 cells and then purified. As the kinase substrate, the biotinylated peptide with the amino acid sequence biotin-FMRLRRLSTKYRT, which was purchased from the company Jerini AG in Berlin, was used.
Aurora-C [5 nM in the test mixture, test volume 5 μl] was incubated for 90 mins at 22° C. in the presence of different concentrations of test substances (0 μM, and 10 data points within the range 0.001-20 μM in duplicate values) in assay buffer [25 mM HEPES pH 7.4, 0.5 mM MnCl2, 0.1 mM Na orthovanadate, 2.0 mM dithiothreitol, 0.05% bovine serum albumin (BSA), 0.01% Triton X-100, 3 μM adenosine trisphosphate (ATP), 0.67 nCi/μl gama-P33-ATP, 2.0 μM substrate peptide biotin-FMRLRRLSTKYRT, 1.0% dimethylsulfoxide]. The reaction was stopped by addition of 12.5 μl of an EDTA/detection solution [16 mM EDTA, 40 mM ATP, 0.08% Triton X-100, 4 mg/ml PVT-streptavidin-SPA beads (Amersham Co.)]. After 10 minutes' incubation, the SPA beads were pelleted by 10-minute centrifugation at 1000×G. The measurement was performed in a Topcount scintillation meter from the Perkin Elmer company. […] The IC50 values were determined by a 4-parameter fit using in-house software. […]

pIC50 (Tie-2): 5.52
SMILES: CC[C@H](CO)Nc1nc(Nc2ccc(S(C)(=N)=O)c(Br)c2)ncc1-c1cccs1 (mixture of isomers) [Example 5.5, (RS)—S-{2-bromo-4-[(4-{[(R)-1-(hydroxymethyl)propyl]amino}-5-(2-thienyl)-pyrimidine-2-yl)amino]phenyl}-S-methylsulfoximide]

pIC50 (CDK2/CycE): 5.52
SMILES: CCS(=N)(=O)c1ccc(Nc2ncc(-c3ccsc3)c(N[C@H](CO)CC(C)C)n2)cc1 (mixture of isomers) [Example 5.3, (RS)—S-ethyl-S-(4-{[4-{[(S)-1-(hydroxymethyl)-3-methylbutyl]amino}-5-(3-thienyl)pyrimidine-2-yl]amino}phenyl)sulfoximide]

pIC50 (ITK): 5.40 | pIC50 (human Itk): 6.40
SMILES: CCOC(=O)N=S(C)(=O)c1ccc(Nc2ncc(-c3cccs3)c(N[C@H](CC)CO)n2)cc1Br (mixture of isomers) [Example 1.7, (RS)—S-{2-bromo-4-[(4-{[(R)-1-(hydroxymethyl)propyl]amino}-5-(2-thienyl)pyrimidine-2-yl)amino]phenyl}-N-(ethoxycarbonyl)-S-methylsulfoximide]

pIC50 (Aurora-C): 5.70
SMILES: CCOC(=O)N=S(C)(=O)c1ccc(Nc2ncc(-c3cccs3)c(N[C@H](C)CO)n2)cc1 (mixture of isomers) [Example 1.1, (RS)—N-(ethoxycarbonyl)-S-(4-{[4-{[(R)-2-hydroxy-1-methylethyl]amino}-5-(2-thienyl)pyrimidine-2-yl]amino}phenyl)-S-methylsulfoximide]
